From US8158657B2, “Heterocycles substituted pyridine derivatives and antifungal agent containing thereof” (Eisai R&D Management Co., Ltd., priority 2005, dated 2012) come the findings set out here.

Experiment [1] relates to A. fumigatus Tsukuba strain. As to the kind of experiment: Anti-Aspergillus activity, MIC measurement. Particulars: RPMI1640, 42-48 hours at 35° C., visual inspection, read-out: Anti-Aspergillus Activity (minimum inhibitory concentration, MIC). The class given is cell-based. A digest of the protocol:
(§1)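 C. albicans CAF2-1 was grown 48 h at 30° C. in SDB and diluted in RPMI1640 to 1.2×10^3 cells/mL. Frozen A. fumigatus Tsukuba was diluted to 4.5×10^3 cells/mL. Compounds, two-fold serially diluted in DMSO from 2.5 mg/mL, were cultured aerobically with fungi for 42-48 h at 35° C.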

Experiment [2] relates to C. albicans CAF2-1 strain. Description: Anti-Candida activity, MIC measurement. Format: cell-based. Particulars: CAF21STRAIN, C. albicans CAF2-1, RPMI1640, 42-48 hours at 35° C., visual inspection, read-out: Anti-Candida Activity (minimum inhibitory concentration, MIC). A digest of the protocol: as §1
The test system of experiment [3] is C. albicans E81022 strain. Description: Experimental systemic candidal infection model in mice. Format: in vivo. Particulars: peroral, 3 times every 4 hours, female ICR mice, observed until 14 days after infection. The method, then:
A standing culture of C. albicans E81022 strain was carried out for 48 hours at 30° C. in sabouraud dextrose agar medium (SDA), the recovered fungal cells were suspended in sterilized physiological saline. By counting the fungal number on cytometry plate, the suspension was diluted to 2×10^7 cells/mL with sterilized physiological saline to serve fungal inoculum.
The fungal inoculum was used in the amounts of 0.2 mL to inoculate 4.5 to 5.5 week-old female ICR mice in the tail vein (4×10^6 cells/mouse).
From 0.5 to 1 hour after fungal inoculation, 0.2 mL of agent solution (dissolved or suspended in sterilized physiological saline containing 6.5% dimethyl sulfoxide and 3.5% Tween 80) was administered into the stomach using a peroral probe, 3 times every 4 hours. The agent concentration was 2.5 mg/kg or 10 mg/kg, and the number of animals in one group was 5 animals.
The protective effect was determined by observing life/death until 14 days after infection and calculating the mean survival days.

Structures are written as SMILES. Converted amounts (≈) assume the structure as drawn.

For `Nc1ncccc1-c1cc(Cc2ccc(OCc3ccc(F)cn3)cc2)no1` [Example 41, 3-(3-(4-(5-Fluoro-pyridin-2-ylmethoxy)-benzyl)-isoxazol-5-yl)-pyridin-2-ylamine], the MIC amounted to 0.2 µg/mL (≈ 0.531 µM) in experiment [1] and 0.39 µg/mL (≈ 1.04 µM) in experiment [2]. In addition, the “Mean Survival Days” value in experiment [3] (2.5 mg/kg) was determined as 11.4 days; in experiment [3] (10 mg/kg) it was 11.8 days.

For `Nc1ncccc1-c1cc(Cc2ccc(OCc3cccc(F)n3)cc2)no1` [Example 45, 3-(3-(4-(6-Fluoro-pyridin-2-ylmethoxy)-benzyl)-isoxazol-5-yl)-pyridin-2-ylamine], the MIC in experiment [1] came out at 0.2 µg/mL (≈ 0.531 µM); in experiment [2], 0.39 µg/mL (≈ 1.04 µM). For the same compound, the “Mean Survival Days” value turned out to be 10.6 days in experiment [3] (2.5 mg/kg) and 10.8 days in experiment [3] (10 mg/kg).

As to `Nc1ccc(-c2cc(Cc3ccn(Cc4ccccc4)c3)no2)c(N)n1` [Example 115, 3-(3-(1-Benzyl-1H-pyrrol-3-ylmethyl)-isoxazol-5-yl)-pyridin-2,6-diamine], the MIC in experiment [1] was 0.2 µg/mL (≈ 0.579 µM); in experiment [2] it was 0.1 µg/mL (≈ 0.29 µM). In addition, the “Mean Survival Days” value in experiment [3] (2.5 mg/kg) came to 10.8 days; in experiment [3] (10 mg/kg) it was 13.2 days.

For the compound `COCc1ccc(-c2cc(Cc3ccc(OCc4ccccn4)cc3)no2)c(N)n1` [Example 166, 6-Methoxymethyl-3-(3-(4-(pyridin-2-ylmethoxy)-benzyl)-isoxazol-5-yl)pyridin-2-ylamine], the figures for the MIC in experiment [1] and in experiment [2] were 0.78 µg/mL (≈ 1.94 µM) and 0.39 µg/mL (≈ 0.969 µM), respectively. The “Mean Survival Days” value came to 3.4 days in experiment [3] (2.5 mg/kg) and 12.4 days in experiment [3] (10 mg/kg).

As to `Nc1ncccc1-c1cnn(Cc2ccc(COc3ccccn3)cc2)c1` [Example 32, 3-(1-(4-(Pyridin-2-yloxymethyl)-benzyl)-1H-pyrazol-4-yl)-pyridin-2-ylamine], the MIC was 0.78 µg/mL (≈ 2.18 µM) in experiment [1] and 0.2 µg/mL (≈ 0.56 µM) in experiment [2]. For the same compound, the “Mean Survival Days” value worked out at 10.2 days in experiment [3] (2.5 mg/kg) and 12.2 days in experiment [3] (10 mg/kg).

For the compound `Nc1ccc(-c2cc(Cc3ccc(OCc4cc(Cl)ccn4)cc3)no2)c(N)n1` [Example 109, 3-(3-(4-(4-Chloro-pyridin-2-ylmethoxy)-benzyl)-isoxazol-5-yl)-pyridin-2,6-diamine], the MIC in experiment [1] is 0.78 µg/mL (≈ 1.91 µM); in experiment [2], 0.39 µg/mL (≈ 0.956 µM). Also, the “Mean Survival Days” value in experiment [3] (2.5 mg/kg) turned out to be 11.0 days; in experiment [3] (10 mg/kg), 11.8 days.

Take `Cc1ccnc(COc2ccc(Cc3cc(-c4ccc(N)nc4N)on3)cc2)c1` [Example 24, 3-(3-(4-(4-Methyl-pyridin-2-ylmethoxy)-benzyl)-isoxazol-5-yl)-pyridin-2,6-diamine]: the MIC in experiment [1] turned out to be 0.78 µg/mL (≈ 2.01 µM); in experiment [2] it was 0.39 µg/mL (≈ 1.01 µM). Further, the “Mean Survival Days” value is 7.4 days in experiment [3] (2.5 mg/kg) and 14.0 days in experiment [3] (10 mg/kg).

For the compound `COCc1ccc(-c2cc(Cc3ccc(COc4ccccn4)cc3)no2)c(N)n1` [Example 27], the MIC in experiment [1] was found to be 0.39 µg/mL (≈ 0.969 µM); in experiment [2], 0.2 µg/mL (≈ 0.497 µM). In addition, the “Mean Survival Days” value in experiment [3] (2.5 mg/kg) was found to be 3.0 days; in experiment [3] (10 mg/kg) it was 10.0 days.

Turning to `CCCCOCc1ccc(Cn2cc(-c3ccc(N)nc3N)cn2)cc1` [Example 38, 3-(1-(4-Butoxymethyl-benzyl)-1H-pyrazol-4-yl)-pyridin-2,6-diamine], the results for the MIC in experiment [1] and in experiment [2] were 1.56 µg/mL (≈ 4.44 µM) and 0.78 µg/mL (≈ 2.22 µM), respectively. For the same compound, the “Mean Survival Days” value is 4.8 days in experiment [3] (2.5 mg/kg) and 10.0 days in experiment [3] (10 mg/kg).

In the case of `Nc1ncccc1-c1cnn(Cc2ccc(OCc3ccccc3)cc2)c1` [Example 31, 3-(1-(4-Benzyloxy-benzyl)-1H-pyrazol-4-yl)-pyridin-2-ylamine], the MIC in experiment [1] came to 0.39 µg/mL (≈ 1.09 µM); in experiment [2], 0.2 µg/mL (≈ 0.561 µM). In experiment [3] (10 mg/kg), the “Mean Survival Days” value amounted to 13.0 days.

For the compound `Cc1ccnc(OCc2ccc(Cc3cc(-c4ccc(N)nc4N)on3)cc2)c1` [Example 102, 3-(3-(4-(4-Methyl-pyridin-2-yloxymethyl)-benzyl)-isoxazol-5-yl)-pyridin-2,6-diamine], the MIC in experiment [1] turned out to be 0.39 µg/mL (≈ 1.01 µM); in experiment [2] it was 0.2 µg/mL (≈ 0.516 µM). For the same compound, the “Mean Survival Days” value in experiment [3] (2.5 mg/kg) is 13.2 days; in experiment [3] (10 mg/kg), 13.0 days.

For `Nc1ncccc1-c1cc(Cc2ccc(OCc3ccc(F)cc3)nc2)no1` [Example 58, 3-(3-(6-(4-Fluoro-benzyloxy)-pyridin-3-ylmethyl)-isoxazol-5-yl)-pyridin-2-ylamine], the values for the MIC in experiment [1] and in experiment [2] were 0.1 µg/mL (≈ 0.266 µM) and 0.78 µg/mL (≈ 2.07 µM), respectively. The “Mean Survival Days” value in experiment [3] (2.5 mg/kg) is 3.8 days; in experiment [3] (10 mg/kg) it was 12.0 days.

Consider `Cc1ccc(-c2cc(Cc3ccc(COc4ccccn4)cc3)no2)c(N)n1` [Example 171], for which the MIC in experiment [1] was found to be 0.39 µg/mL (≈ 1.05 µM); in experiment [2], 0.2 µg/mL (≈ 0.537 µM). For the same compound, the “Mean Survival Days” value in experiment [3] (2.5 mg/kg) came to 8.4 days; in experiment [3] (10 mg/kg), 12.6 days.

As for `Nc1ncccc1-c1cc(Cc2ccc(COc3ccccn3)cc2)on1` [Example 30, 3-(5-(4-(Pyridin-2-yloxymethyl)-benzyl)-isoxazol-3-yl)-pyridin-2-ylamine], the MIC was 0.2 µg/mL (≈ 0.558 µM) in experiment [1] and 0.1 µg/mL (≈ 0.279 µM) in experiment [2]. The “Mean Survival Days” value in experiment [3] (2.5 mg/kg) is 13.0 days.

In the case of `Nc1ncccc1-c1cc(Cc2ccc(COc3ccccc3)nc2)no1` [Example 54, 3-(3-(6-Phenoxymethyl-pyridin-3-ylmethyl)-isoxazol-5-yl)-pyridin-2-ylamine], the MIC in experiment [1] came out at 0.39 µg/mL (≈ 1.09 µM); in experiment [2], 0.1 µg/mL (≈ 0.279 µM). Besides, the “Mean Survival Days” value was 13.0 days in experiment [3] (2.5 mg/kg) and 13.6 days in experiment [3] (10 mg/kg).

As for `Nc1ccc(-c2cnn(Cc3ccc(COc4ccccn4)cc3)c2)c(N)n1` [Example 37, 3-(1-(4-(Pyridin-2-yloxymethyl)-benzyl)-1H-pyrazol-4-yl)-pyridin-2,6-diamine], the figures for the MIC in experiment [1] and in experiment [2] were 1.56 µg/mL (≈ 4.19 µM) and 0.39 µg/mL (≈ 1.05 µM), respectively. Also, the “Mean Survival Days” value in experiment [3] (2.5 mg/kg) was 5.4 days; in experiment [3] (10 mg/kg), 14.0 days.

`c1ccc(OCc2ccc(Cc3cc(-c4cccnc4)on3)cc2)nc1` [Example 202, 3-(3-(4-(Pyridin-2-yloxymethyl)-benzyl)-isoxazol-5-yl)-pyridine]: the MIC was determined as 0.2 µg/mL (≈ 0.582 µM) in experiment [1] and 0.05 µg/mL (≈ 0.146 µM) in experiment [2]. Further, the “Mean Survival Days” value in experiment [3] (2.5 mg/kg) was found to be 2.4 days; in experiment [3] (10 mg/kg), 10.0 days.

With `Nc1ncccc1-c1cc(Cc2ccc(OCc3ccccn3)cc2)no1` [Example 9, 3-(3-(4-(Pyridin-2-ylmethoxy)-benzyl)-isoxazol-5-yl)-pyridin-2-ylamine], the MIC in experiment [1] came to 0.39 µg/mL (≈ 1.09 µM); in experiment [2], 0.2 µg/mL (≈ 0.558 µM). The “Mean Survival Days” value in experiment [3] (2.5 mg/kg) was 12.8 days; in experiment [3] (10 mg/kg) it was 14.0 days.

Consider `Nc1ncccc1-c1cc(Cc2ccc(OCc3ccccc3)cc2)no1` [Example 1, 3-(3-(4-Benzyloxy-benzyl)-isoxazol-5-yl)-pyridin-2-ylamine], for which the MIC in experiment [1] and in experiment [2] was 0.2 µg/mL (≈ 0.56 µM) each time. Further, the “Mean Survival Days” value in experiment [3] (2.5 mg/kg) amounted to 12.2 days; in experiment [3] (10 mg/kg), 14.0 days.

For `Nc1ncccc1-c1cc(Cc2ccc(OCc3ccccc3)nc2)no1` [Example 12, 3-(3-(6-Benzyloxy-pyridin-3-ylmethyl)-isoxazol-5-yl)-pyridin-2-ylamine], the MIC in experiment [1] and in experiment [2] was 0.1 µg/mL (≈ 0.279 µM) in each case. Further, the “Mean Survival Days” value in experiment [3] (2.5 mg/kg) stood at 10.8 days; in experiment [3] (10 mg/kg) it was 14.0 days.

On to `Nc1ccc(-c2cc(Cc3ccc(OCc4cccc(F)n4)cc3)no2)c(N)n1` [Example 104, 3-(3-(4-(6-Fluoro-pyridin-2-ylmethoxy)-benzyl)-isoxazol-5-yl)-pyridin-2,6-diamine], for which the MIC in experiment [1] and in experiment [2] was 0.78 µg/mL (≈ 1.99 µM) in each case. Also, the “Mean Survival Days” value turned out to be 8.2 days in experiment [3] (2.5 mg/kg) and 13.2 days in experiment [3] (10 mg/kg).

As for `Nc1ccc(-c2cc(Cc3ccc(Cc4ccc(Cl)o4)cc3)no2)c(N)n1` [Example 120, 3-(3-(4-(5-Chloro-furan-2-ylmethyl)-benzyl)-isoxazol-5-yl)-pyridin-2,6-diamine], the MIC in experiment [1] came to 0.2 µg/mL (≈ 0.525 µM); in experiment [2] it was 0.39 µg/mL (≈ 1.02 µM). Besides, the “Mean Survival Days” value in experiment [3] (2.5 mg/kg) was determined as 3.2 days; in experiment [3] (10 mg/kg), 13.4 days.

In the case of `CCCCOCc1ccc(Cc2cc(-c3ccc(N)nc3N)on2)cc1` [Example 16, 3-(3-(4-Butoxymethyl-benzyl)-isoxazol-5-yl)-pyridin-2,6-diamine], the MIC in experiment [1] and in experiment [2] was 0.39 µg/mL (≈ 1.11 µM) throughout. Moreover, the “Mean Survival Days” value was 4.8 days in experiment [3] (2.5 mg/kg) and 12.8 days in experiment [3] (10 mg/kg).

Turning to `Nc1ccc(-c2cc(Cc3ccc(OCc4cccc(Cl)n4)cc3)no2)c(N)n1` [Example 110, 3-(3-(4-(6-Chloro-pyridin-2-ylmethoxy)-benzyl)-isoxazol-5-yl)-pyridin-2,6-diamine], the MIC in experiment [1] and in experiment [2] was 0.78 µg/mL (≈ 1.91 µM) each time. Besides, the “Mean Survival Days” value in experiment [3] (2.5 mg/kg) was determined as 12.0 days.
